# Laboratory results from patent US10206909B2, “3-(1H-pyrrolo[2,3-B]pyridin-2-yl)-1H-pyrazolo[4,3-B]pyridines and therapeutic uses thereof” (Samumed, LLC, priority 2015, dated 2019).
# Test system: primary human fibroblasts derived from IPF patients (LL29 cells)
# Test: Inhibition of the fibrotic process: αSMA staining in TGF-β1 treated fibroblasts
# Type: cell-based
# Details: Fibroblast; for EC50: 96 h, LL29 cells, TGF-β1 20 ng/mL, 4 days, % αSMA positive cells; for inhibition at 10 µM: given where EC50 >10 μM, LL29, αSMA, read-out: percent inhibition at 10 μM
# Source text: Representative compounds were screened using primary human fibroblasts (derived from IPF patients) treated with TGF-β1 to determine their ability to inhibit the fibrotic process.
# Human Fibroblast Cell Culture: Primary human fibroblasts derived from IPF patients (LL29 cells) [^1Xiaoqiu Liu, et. al., “Fibrotic Lung Fibroblasts Show Blunted Inhibition by cAMP Due to Deficient cAMP Response Element-Binding Protein Phosphorylation”, Journal of Pharmacology and Experimental Therapeutics (2005), 315(2), 678-687; ^2Watts, K. L., et. al., “RhoA signaling modulates cyclin D1 expression in human lung fibroblasts; implications for idiopathic pulmonary fibrosis”, Respiratory Research (2006), 7(1), 88] were obtained from American Type Culture Collection (ATCC) and expanded in F12 medium supplemented with 15% Fetal Bovine Serum and Penicillin/Streptomycin.
# Compound Screening: Each compound was dissolved in DMSO as a 10 mM stock and used to prepare compound source plates. Serial dilution (1:2, 11-point dose-response curves from 10 μM to […]) and compound transfer was performed using the ECHO 550 (Labcyte, Sunnyvale, Calif.) into 384-well clear bottom assay plates (Greiner Bio-One) with appropriate DMSO backfill for a final DMSO concentration of 0.1%. LL29 cells are plated at 1,500 cells/well in 80 μL/well F12 medium supplemented with 1% Fetal Bovine Serum. One hour after addition of the cells, TGF-β1 (Peprotech; 20 ng/mL) was added to the plates to induce fibrosis (ref. 1 and 2 above). Wells treated with TGF-β1 and containing DMSO were used as controls. Cells were incubated at 37° C. and 5% CO2 for 4 days. Following incubation for 4 days, SYTOX green nucleic acid stain (Life Technologies [Thermo Fisher Scientific]) was added to the wells at a final concentration of 1 μM and incubated at room temperature for 30 min. Cells were then fixed using 4% formaldehyde (Electron Microscopy Sciences), washed 3 times with PBS followed by blocking and permeabilization using 3% Bovine Serum Albumin (BSA; Sigma) and 0.3% Triton X-100 (Sigma) in PBS. Cells were then stained with antibody specific to α-smooth muscle actin (αSMA; Abcam) (ref. 1 and 2 above) in 3% Bovine Serum Albumin (BSA; Sigma) and 0.3% Triton X-100 (Sigma) in PBS, and incubated overnight at 4° C. Cells were then washed 3 times with PBS, followed by incubation with Alexa Flor-647 conjugated secondary antibody (Life Technologies [Thermo Fisher Scientific]) and DAPI at room temperature for 1 hour. Cells were then washed 3 times with PBS and plates were sealed for imaging. αSMA staining was imaged by excitation at 630 nm and emission at 665 nm and quantified using the Compartmental Analysis program on the CellInsight CX5 (Thermo Scientific). Dead or apoptotic cells were excluded from analysis based on positive SYTOX green staining. % of total cells positive for αSMA were counted in each well and normalized to the average of 11 wells treated with TGF-β1 on the same plate using Dotmatics' Studies Software. The normalized averages (fold change over untreated) of 3 replicate wells for each compound concentration were used to create dose-responses curves and EC50 values were calculated using non-linear regression curve fit in the Dotmatics' Studies Software. For EC50 of >10 μM, the percent inhibition at 10 μM is provided.
SMILES,EC50 [nM],inhibition at 10 µM [%]
"Fc1cccc(-c2ccnc3[nH]c(-c4n[nH]c5ccc(-c6cccnc6)nc45)cc23)c1 [Compound 4, 3-(4-(3-Fluorophenyl)-1H-pyrrolo[2,3-b]pyridin-2-yl)-5-(pyridin-3-yl)-1H-pyrazolo[4,3-b]pyridine]",144,–
"CC(C)(C)C(=O)Nc1cncc(-c2ccc3[nH]nc(-c4cc5c(-c6cccc(F)c6)ccnc5[nH]4)c3n2)c1 [Compound 8, N-(5-(3-(4-(3-Fluorophenyl)-1H-pyrrolo[2,3-b]pyridin-2-yl)-1H-pyrazolo [4,3-b]pyridin-5-yl)pyridin-3-yl)pivalamide]",1100,–
"Cc1ccncc1-c1ccc2[nH]nc(-c3cc4c(-c5ccc(F)cc5)ccnc4[nH]3)c2n1 [Compound 33, 3-(4-(4-Fluorophenyl)-1H-pyrrolo[2,3-b]pyridin-2-yl)-5-(4-methylpyridin-3-yl)-1H-pyrazolo[4,3-b]pyridine]",> 10000,2.9
"O=C(Nc1cncc(-c2ccc3[nH]nc(-c4cc5c(-c6ccc(F)cc6)ccnc5[nH]4)c3n2)c1)c1ccccc1 [Compound 39, N-(5-(3-(4-(4-Fluorophenyl)-1H-pyrrolo[2,3-b]pyridin-2-yl)-1H-pyrazolo [4,3-b]pyridin-5-yl)pyridin-3-yl)benzamide]",7790,–
"Fc1ccc(-c2ccnc3[nH]c(-c4n[nH]c5ccc(-c6cncc(CN7CCC(F)(F)C7)c6)nc45)cc23)cc1 [Compound 54, 5-(5-((3,3-Difluoropyrrolidin-1-yl)methyl)pyridin-3-yl)-3-(4-(4-fluorophenyl)-1H-pyrrolo[2,3-b]pyridin-2-yl)-1H-pyrazolo[4,3-b]pyridine]",374,–
"Fc1ccc(-c2ccnc3[nH]c(-c4n[nH]c5ccc(-c6cncnc6)nc45)cc23)cc1 [Compound 55, 3-(4-(4-Fluorophenyl)-1H-pyrrolo[2,3-b]pyridin-2-yl)-5-(pyrimidin-5-yl)-1H-pyrazolo[4,3-b]pyridine]",> 10000,0
"CC(C)CC(=O)Nc1cncc(-c2ccc3[nH]nc(-c4cc5c(-c6ccccc6F)ccnc5[nH]4)c3n2)c1 [Compound 58, N-(5-(3-(4-(2-Fluorophenyl)-1H-pyrrolo[2,3-b]pyridin-2-yl)-1H-pyrazolo [4,3-b]pyridin-5-yl)pyridin-3-yl)-3-methylbutanamide]",> 10000,18.2
"O=C(Nc1cncc(-c2ccc3[nH]nc(-c4cc5c(-c6ccccc6F)ccnc5[nH]4)c3n2)c1)C1CC1 [Compound 76, N-(5-(3-(4-(2-Fluorophenyl)-1H-pyrrolo[2,3-b]pyridin-2-yl)-1H-pyrazolo [4,3-b]pyridin-5-yl)pyridin-3-yl)cyclopropanecarboxamide]",5260,–
"Fc1ccccc1-c1ccnc2[nH]c(-c3n[nH]c4ccc(-c5cncc(CNCc6ccccc6)c5)nc34)cc12 [Compound 80, N-Benzyl-1-(5-(3-(4-(2-fluorophenyl)-1H-pyrrolo[2,3-b]pyridin-2-yl)-1H-pyrazolo[4,3-b]pyridin-5-yl)pyridin-3-yl)methanamine]",1190,–
"Fc1ccccc1-c1ccnc2[nH]c(-c3n[nH]c4ccc(-c5ccccn5)nc34)cc12 [Compound 84, 3-(4-(2-Fluorophenyl)-1H-pyrrolo[2,3-b]pyridin-2-yl)-5-(pyridin-2-yl)-1H-pyrazolo[4,3-b]pyridine]",> 10000,0
"c1cncc(-c2ccnc3[nH]c(-c4n[nH]c5ccc(-c6ccncc6)nc45)cc23)c1 [Compound 102, 3-(4-(Pyridin-3-yl)-1H-pyrrolo[2,3-b]pyridin-2-yl)-5-(pyridin-4-yl)-1H-pyrazolo[4,3-b]pyridine]",> 10000,0
"c1cc(N2CCCCC2)c2cc(-c3n[nH]c4ccc(-c5cncc(CN6CCCCC6)c5)nc34)[nH]c2n1 [Compound 183, 3-(4-(Piperidin-1-yl)-1H-pyrrolo[2,3-b]pyridin-2-yl)-5-(5-(piperidin-1-ylmethyl)pyridin-3-yl)-1H-pyrazolo[4,3-b]pyridine]",> 10000,0
"c1ccc(-c2ccc3[nH]nc(-c4cc5c(N6CCCCC6)ccnc5[nH]4)c3n2)nc1 [Compound 196, 3-(4-(Piperidin-1-yl)-1H-pyrrolo[2,3-b]pyridin-2-yl)-5-(pyridin-2-yl)-1H-pyrazolo[4,3-b]pyridine]",2050,–
"O=C(Nc1cncc(-c2ccc3[nH]nc(-c4cc5cccnc5[nH]4)c3n2)c1)C1CCCCC1 [Compound 275, N-(5-(3-(1H-Pyrrolo[2,3-b]pyridin-2-yl)-1H-pyrazolo[4,3-b]pyridin-5-yl)pyridin-3-yl)cyclohexanecarboxamide]",> 10000,0
"CN(C)c1cncc(-c2ccc3[nH]nc(-c4cc5c(-c6ccoc6)ccnc5[nH]4)c3n2)c1 [Compound 315, 5-(3-(4-(Furan-3-yl)-1H-pyrrolo[2,3-b]pyridin-2-yl)-1H-pyrazolo[4,3-b]pyridin-5-yl)-N,N-dimethylpyridin-3-amine]",5520,–
"O=C(Cc1ccccc1)Nc1cncc(-c2ccc3[nH]nc(-c4cc5c(-c6ccoc6)ccnc5[nH]4)c3n2)c1 [Compound 318, N-(5-(3-(4-(Furan-3-yl)-1H-pyrrolo[2,3-b]pyridin-2-yl)-1H-pyrazolo[4,3-b]pyridin-5-yl)pyridin-3-yl)-2-phenylacetamide]",> 10000,25.7
"c1csc(-c2ccnc3[nH]c(-c4n[nH]c5ccc(-c6ccncc6)nc45)cc23)c1 [Compound 354, 5-(Pyridin-4-yl)-3-(4-(thiophen-2-yl)-1H-pyrrolo[2,3-b]pyridin-2-yl)-1H-pyrazolo[4,3-b]pyridine]",2250,–
"c1csc(-c2ccnc3[nH]c(-c4n[nH]c5ccc(-c6cncnc6)nc45)cc23)c1 [Compound 363, 5-(Pyrimidin-5-yl)-3-(4-(thiophen-2-yl)-1H-pyrrolo[2,3-b]pyridin-2-yl)-1H-pyrazolo[4,3-b]pyridine]",546,–
"Fc1cccc(-c2ccnc3[nH]c(-c4n[nH]c5ccc(-c6cncc(OCc7ccccc7)c6)nc45)cc23)c1 [Compound 518, 5-(5-(Benzyloxy)pyridin-3-yl)-3-(4-(3-fluorophenyl)-1H-pyrrolo[2,3-b]pyridin-2-yl)-1H-pyrazolo[4,3-b]pyridine]",2450,–
"Oc1cncc(-c2ccc3[nH]nc(-c4cc5c(-c6ccc(F)cc6)ccnc5[nH]4)c3n2)c1 [Compound 533, 5-(3-(4-(4-Fluorophenyl)-1H-pyrrolo[2,3-b]pyridin-2-yl)-1H-pyrazolo[4,3-b]pyridin-5-yl)pyridin-3-ol]",> 10000,43
"c1cc(N2CCCCC2)c2cc(-c3n[nH]c4ccc(C5CCNCC5)nc34)[nH]c2n1 [Compound 601, 3-(4-(Piperidin-1-yl)-1H-pyrrolo[2,3-b]pyridin-2-yl)-5-(piperidin-4-yl)-1H-pyrazolo[4,3-b]pyridine]",> 10000,20.1
"Cn1cc(-c2ccc3[nH]nc(-c4cc5cccnc5[nH]4)c3n2)cn1 [Compound 652, 5-(1-Methyl-1H-pyrazol-4-yl)-3-(1H-pyrrolo[2,3-b]pyridin-2-yl)-1H-pyrazolo[4,3-b]pyridine]",1210,–
"c1csc(-c2ccnc3[nH]c(-c4n[nH]c5ccc(-c6cncc(OC7CCCCC7)c6)nc45)cc23)c1 [Compound 703, 5-(5-(Cyclohexyloxy)pyridin-3-yl)-3-(4-(thiophen-2-yl)-1H-pyrrolo[2,3-b]pyridin-2-yl)-1H-pyrazolo[4,3-b]pyridine]",1620,–
